The source of these data is PMC6032384 (International Journal of Molecular Sciences, 2018).

This assay deals with HL-60 cells. Description: Annexin V-FITC/PI apoptosis assay by flow cytometry. The class given is cell-based, human. The protocol:
Additionally, annexin V, which is a Ca^2+-dependent protein with high affinity for phosphatidylserine, was conjugated to a fluorochrome to detect phosphatidylserine exposure using flow cytometry. Since phosphatidylserine exposure precedes the loss of membrane integrity, annexin V staining was used along with the dye PI to identify early and late apoptotic cells, as well as necrotic cells. Therefore, annexin V-FITC/PI double staining was applied to HL-60 cells that were treated with the [Ru(PPh3)2(Thy)(bipy)]PF6 complex after 24 and 48 h of incubation, and the numbers of viable, early apoptotic, late apoptotic, and necrotic cells were quantified by flow cytometry (Figure 5).
Figure 5 Evaluation of the apoptosis induced by the [Ru(PPh3)2(Thy)(bipy)]PF6 complex (CRT) in HL-60 cells determined by flow cytometry using annexin V-FITC/PI staining after 24 and 48 h of incubation. (A) Representative flow cytometry dot plots. (B) Apoptotic cell quantification (annexin V-FITC positive cells). […] Data are presented as the mean ± S.E.M. of at the least three independent experiments. * p < 0.05 as compared with the negative control by ANOVA, followed by the Student Newman-Keuls test. […] Its quadrant percentages are just as hard to read: 24 h about Q1 0.640%, Q2 5.23%, Q4 85.6%, Q3 8.47%; 48 h about Q1 0.430%, Q2 3.07%, Q4 91.0%, Q3 5.52%.
Light scattering features were determined by flow cytometry. The internucleosomal DNA fragmentation and cell cycle distribution were determined according to Nicoletti et al.. For apoptosis measurements, a FITC Annexin V Apoptosis Detection Kit I (BD Biosciences, San Jose, CA, USA) was used, and the analysis was performed, according to the manufacturer’s instructions. A protection assay using the pan-caspase inhibitor Z-VAD(OMe)-FMK (Cayman Chemical, Ann Arbor, MI, USA) was also evaluated. The mitochondrial transmembrane potential was determined by the retention of the dye rhodamine 123 [28]. The levels of ROS were measured, as previously described, using 2′,7′-dichlorofluorescin diacetate (DCF-DA, Sigma-Aldrich Co.). At least 1 × 10^4 events were recorded per sample using a BD LSRFortessa cytometer along with BD FACSDiva Software (BD Biosciences) and Flowjo Software 10 (Flowjo LCC, Ashland, OR, USA). The cellular debris was omitted from the analysis.
On the technique in general: In flow cytometry, cells or beads pass a laser one at a time.

Take `Cc1c[nH]c(=O)[n-]c1=O.F[P-](F)(F)(F)(F)F.[Ru+2].c1ccc(-c2ccccn2)nc1.c1ccc(P(c2ccccc2)c2ccccc2)cc1.c1ccc(P(c2ccccc2)c2ccccc2)cc1` [CRT, [Ru(PPh3)2(Thy)(bipy)]PF6]: the “Effect of pretreatment with antioxidant N-acetyl-L-cysteine (NAC) on the increase in apoptotic cells” value (NAC pretreatment, data not shown) is reported as “did not prevent”. In addition, for the setting “annexin V-FITC/PI, 24 and 48 h”, the “Percentage of apoptotic cells (early apoptotic cells + late apoptotic cells)” value is listed as “significant increase” and the “Percentage of necrotic cells” value is given as “No significant increase”.
